From patent US8158632B2, “Pyrazolo[1,5-a]pyrimidines, processes, uses and compositions” (priority 2006, dated 2012)

Tests used:
[1] = tested on: HeLa cells; test: Cell toxicity in HeLa cells at 24 h; format: cell-based; conditions: HeLa at 100 μM
Description: (§1) d) In Vitro Determination of Cell Toxicity in HepG2, CHO-K1 and HeLa Cells at 24 h
(§2) Compounds were dissolved in DMSO to achieve an initial concentration of 100 mM. Serial dilutions were made from this stock solution in DMSO to achieve a range of concentrations from 50 to 0.25 mM. The stock solution and serial dilutions were then diluted 1:100 with the respective cell culture medium. In the case of CHO-K1 cells, concentrations at 1000, 500, 250, 100, 50, 25, 10, 5 and 2.5 μM were prepared to assess IC50, whereas in the case of HepG2 cells, final concentrations at 1000, 100, 10 and 1 μM final were assayed in order to calculate the percentage of cell. The final DMSO concentration in all wells was 1% v/v. Cell lines were both incubated with test compounds for 24 hours. Relative cell viability was determined spectro-photometrically at 490 nm following the addition of the MTS dye and further one-hour incubation. Tamoxifen was used as the positive control.
An analogous protocol was used to determine the cell toxicity in HeLa cells at 24 h.

[2] = Cell toxicity (MTS cell viability) in CHO-K1 cells at 24 h; format: cell-based; conditions: Chinese hamster
Description: as §1
(§3) HepG2 (human hepatocellular carcinoma cells) and CHO-K1 (Chinese hamster ovary cells) were both obtained from the American Type Culture Collection (ATCC). HepG2 were cultured in Minimum Essential Medium (MEM) containing Earl's salts solution with 1.87 mM Glutamax® and supplemented with 1 mM sodium pyruvate, 0.1 mM non-essential amino acids, 100000 U/L penicillin, 100000 μg/L streptomycin and 10% Foetal Bovine Serum. CHO-K1 were maintained in Ham's F-12 medium containing 1 mM Glutamax® and supplemented with 1 mM L-glutamine, 100000 U/L penicillin, 100000 μg/L streptomycin and 10% Foetal Bovine Serum. Promega CellTiter 96® Aqueous One Solution Cell Viability Assay, contains the tetrazolium salt (MTS) that dehydrogenase enzymes found in metabolically active cells turn into the aqueous soluble formazan product. The quantity of formazan product is proportional to the number of living cells in culture.
Compounds were dissolved in DMSO to achieve an initial concentration of 100 mM. Serial dilutions were made from this stock solution in DMSO to achieve a range of concentrations from 50 to 0.25 mM. […] Relative cell viability was determined spectro-photometrically at 490 nm following the addition of the MTS dye and further one-hour incubation. […]

[3] = tested on: HepG2 cells; test: Cell toxicity (MTS cell viability) in HepG2 cells at 24 h; format: cell-based, human; conditions: HepG2 at 100 μM
Description: as §1, §3, §2

[4] = tested on: mice; test: In vivo predictive sedation-hypnosis test (traveled distance); conditions: male CD1 mice; for % inhib motor activity: 98 μmol/kg ip, traveled distance over 30 min (first 5 min discarded) vs control
Description: b) In Vivo Determination of Predictive Sedative-Hypnotic Action
The in vivo effects of these compounds were assessed by a predictive sedation-hypnosis test in mice (D. J. Sanger et al., Eur. J. Pharmacol., 313, 35-42, 1996; and G. Griebel et al., Psychopharmacology, 146, 205-213, 1999).
Groups of 5-8 male CD1 mice, weighing 22-26 g at the time of test, were used. The test compounds were administered in single equimolecular intraperitoneal doses, suspended in 0.25% agar with one drop of Tween 80 in a volume of 10 mL/kg. Two doses were tested in each route. Control animals received the vehicle alone. Using a Smart System (Panlab, S. L., Spain) the traveled distance in cm is recorded for each mouse at 5-min intervals during a period of 30 minutes after intraperitoneal (ip) dosing. The inhibition percentage of traveled distance of treated animals versus control animals (the first 5 min were discarded) and ED50 values were calculated.

[5] = tested on: α2 subunit of the GABAA receptor; test: Ligand-binding assay, competitive with radiolabeled flumazenil, spinal cord membranes; conditions: 10^−5M compound; 1 nM radiolabeled flumazenil; rat spinal cord membranes
Description: (§4) a) Ligand-Binding Assays. Determination of the Affinity of Test Compounds for α1- and α2-GABAA Receptor
(§5) Male Sprague-Dawley rats weighing 200-250 g at the time of experiment were used. After decapitation of the animal, the cerebellum (tissue that mostly contains α1-GABAA receptor) and spinal cord (tissue that mostly contains α2-GABAA receptor) were removed. The membranes were prepared according to the method by J. Lameh et al. (Prog. Neuro-Psychopharmacol. Biol. Psychiatry, 24, 979-991, 2000) and H. Noguchi et al. (Eur. J. Pharm., 434, 21-28, 2002) with slight modifications. Once the tissues weighed, they were suspended in 50 mM Tris.HCl (pH 7.4), 1:40 (v/v), or sucrose 0.32 M in the case of spinal cord, homogenized and then centrifuged at 20000 g for 10 min at 7° C. The resulting pellet was resuspended under the same conditions and centrifuged again. The pellet was finally resuspended on a minimum volume and kept at −80° C. overnight. On the next day, the process was repeated until the final pellet was resuspended at a ratio of 1:10 (v/v) in the case of cerebellum and at a ratio of 1:5 (v/v) in the case of spinal cord.
Affinity was determined by competitive tests using radiolabeled flumazenil as ligand. The tests were performed according to the methods described by S. Arbilla et al. (Eur. J. Pharmacol., 130, 257-263, 1986); and Y. Wu et al. (Eur. J. Pharmacol., 278,125-132, 1995) using 96-well microtiter plates. The membranes containing the study receptors, flumazenil (radiolabeling at a final concentration of 1 nM) and ascending concentrations of test compounds (in a total volume of 230 μL in 50 mM [ph 7.4] Tris.HCl buffer) were incubated. Simultaneously, the membranes were only incubated with the radiolabeled flumazenil (total binding, 100%) and in the presence of an elevated concentration of unradiolabeled flumazenil (non-specific binding, % estimation of radiolabeled ligand). […] The next day the plates were counted using a Perkin-Elmer Microbeta scintillation counter.
(§6) For analysis of the results the percentage of specific binding for every concentration of test compound was calculated as follows: % specific binding=(X−N/T−N)×100 where, • X: amount of bound ligand for every concentration of compound. • T: total binding, maximum amount bound to the radiolabeled ligand. • N: non-specific binding, amount of radiolabeled ligand bound in a non-specific way irrespective of the receptor used.
(§7) Every concentration of compounds was tested in triplicate and their mean values were used to determine the experimental values of % specific binding versus the concentration of compound. Affinity data are expressed as % inhibition at 10^−5M and 10^−7M concentrations for α1 subunit and at 10^-5M for α2 subunit.

[6] = tested on: α1 subunit of the GABAA receptor; test: Ligand-binding assay, competitive with radiolabeled flumazenil, cerebellum membranes; conditions: 1 nM radiolabeled flumazenil, rat cerebellum membranes; for % inhib 10^−5M: 10^−5M compound; for % inhib 10^−7M: 10^−7M compound
Description: as §4, §5
Affinity was determined by competitive tests using radiolabeled flumazenil as ligand. The tests were performed according to the methods described by S. Arbilla et al. (Eur. J. Pharmacol., 130, 257-263, 1986); and Y. Wu et al. (Eur. J. Pharmacol., 278,125-132, 1995) using 96-well microtiter plates. The membranes containing the study receptors, flumazenil (radiolabeling at a final concentration of 1 nM) and ascending concentrations of test compounds (in a total volume of 230 μL in 50 mM [ph 7.4] Tris.HCl buffer) were incubated. Simultaneously, the membranes were only incubated with the radiolabeled flumazenil (total binding, 100%) and in the presence of an elevated concentration of unradiolabeled flumazenil (non-specific binding, % estimation of radiolabeled ligand). The reactions started on adding the radiolabeled ligand followed by incubation for 60 minutes at 4° C. At the end of the incubation period, 200 μL of reaction were transferred to a multiscreen plate (Millipore) and filtered using a vacuum manifold and then washed three times with cold test buffer. The multiscreen plates were equipped with a GF/B filter that retained the membranes containing the receptors and the radiolabeled ligand which had been bound to the receptors. After washing, the plates were left till dry. Once dried, scintillation liquid was added and left under stirring overnight. The next day the plates were counted using a Perkin-Elmer Microbeta scintillation counter.
as §6, §7

[7] = Metabolic stability in human hepatocytes cytosolic fraction; format: in vitro ADME; conditions: 5 μM compound, 1.0 mg/mL pooled human cytosol, 37° C.
Description: c) In Vitro Determination of Metabolic Stability in Human Hepatocytes Cytosolic Fraction
Compounds were dissolved in dimethyl sulfoxide to achieve an initial concentration of 10 mM. This stock solution was then diluted with solvent and buffer to obtain final assay concentration of 5 μM. Compounds were tested at a single concentration of 5 μM in duplicate incubating with 1.0 mg/mL of pooled human cytosol (obtained from Xenotech plc) at 37° C. Metabolism was assessed in the presence or absence of cofactors and measured as loss of parent compound by LC/MS analysis at 0, 60 and 120-minutes time points. Percentages of remaining parent compounds were then calculated.

| Compound | % of cell viability [1] [%] | IC50 at 24 h [2] [µM] | % of cell viability [3] [%] | % of cell viability ([3]; listed as indiplon) [%] | % inhib motor activity [4] [%] | % inhib 10^−5M [5] [%] | % inhib 10^−5M [6] [%] | % inhib 10^−7M [6] [%] | % of Parent ([7]; 60 min) [%] | % of Parent ([7]; 120 min) [%] | ED50 ([4]; Mus musculus, ip, read-out: ED50 in inducing sedation) [µmol/kg] | % of cell viability ([3]; listed as example 11) [%] |
| --- | --- | --- | --- | --- | --- | --- | --- | --- | --- | --- | --- | --- |
| CC(=O)N(C)c1cccc(-c2ccnc3c(C(=O)c4cccs4)cnn23)c1 [Example 1 of US 6399621 (indiplon), N-{3-[3-(thiophene-2-carbonyl)-pyrazolo[1,5-a]pyrimidin-7-yl]-phenyl}-N-methyl-acetamide, reference compound] | 67.9 | 108 | 70 | 70 |  |  |  |  |  |  |  |  |
| CN(c1cc(-c2ccnc3c([N+](=O)[O-])cnn23)ccc1F)S(C)(=O)=O [Preparative example 5, N-{2-fluoro-5-[3-nitro-pyrazolo[1,5-a]pyrimidin-7-yl]-phenyl}-N-methyl-methanesulfonamide] |  |  |  |  | 89.0 | 94.5 | 98.2 | 42.3 |  |  |  |  |
| CN(c1cc(-c2ccnc3c(C#N)cnn23)ccc1F)S(C)(=O)=O [Preparative example 6, N-{2-fluoro-5-[3-cyano-pyrazolo[1,5-a]pyrimidin-7-yl]-phenyl}-N-methyl-methanesulfonamide] |  |  |  |  | 76.3 | 87.5 | 98.1 | 36.4 | 86 | 81 |  |  |
| Cc1nn2c(-c3ccc(F)c(N(C)S(C)(=O)=O)c3)ccnc2c1C#N [Preparative example 11, N-{2-fluoro-5-[3-cyano-2-methyl-pyrazolo[1,5-a]pyrimidin-7-yl]-phenyl}-N-methyl-methanesulfonamide] | 83.9 | 186 | 84.5 |  | 83.8 | 95.0 | 97.7 | 41.8 | 88 | 82 | 16.9 | 84.5 |
| CC(=O)N(C)c1cc(-c2ccnc3c(C(=O)c4cccs4)cnn23)ccc1C [Preparative example 13, N-{2-methyl-5-[3-(thiophene-2-carbonyl)-pyrazolo[1,5-a]pyrimidin-7-yl]-phenyl}-N-methyl-acetamide] |  |  |  |  | 95.6 |  | 98.7 | 39.8 |  |  |  |  |
| COc1ccc(-c2ccnc3c(C(=O)c4cccs4)cnn23)cc1N(C)C(C)=O [Preparative example 14, N-{2-methoxy-5-[3-(thiophene-2-carbonyl)-pyrazolo[1,5-a]pyrimidin-7-yl]-phenyl}-N-methyl-acetamide] |  |  |  |  | 89.6 |  | 97.3 | 31.9 |  |  |  |  |
| CCN(C(C)=O)c1cccc(-c2ccnc3c(C#N)cnn23)c1 [Zaleplon, reference compound] |  |  |  |  | 84.9 | 77.4 |  |  |  |  |  |  |
